Experimental data reported in patent US20240262823A1, “PHARMACEUTICALLY ACCEPTABLE SALT OF PYRAZOLOHETEROARYL DERIVATIVE AND CRYSTAL FORM THEREOF” (JIANGSU HENGRUI PHARMACEUTICALS CO., LTD., priority 2021, published 2024).

Columns and labels:
[1] = Long-term/accelerated stability test of crystalline salt forms in sealed aluminum foil bags; format: physicochemical; conditions: for Crystalline form: after storage
Description: The crystalline form α of mesylate, the crystalline form α of sulfate, the crystalline form I of maleate, the crystalline form a of p-toluenesulfonate and the crystalline form a of oxalate were stored in sealed aluminum foil bags and subjected to stability test under the conditions of −20° C., 4° C., 25° C./60% RH and 40° C./75% RH.

LoVo cells = experiment: Cell proliferation assay (intracellular ATP content, CellTiter-Glo); format: cell-based, human; conditions: 3 days
From the text: The following method evaluates the inhibitory effect of the compounds disclosed herein on the proliferation of LoVo cells via IC50 by measuring the intracellular ATP content. The experimental method was briefly described as follows:
• 1. LoVo, human colon cancer cells (Cobioer, Nanjing, CBP60032) • 2. Fetal bovine serum (GIBCO, 10091-148) • 3. F-12K Medium (Gibco, 21127030) • 4. CellTite-Glo reagent (Promega, G7573) • 5. 96-well cell culture plate (Corning, 3903) • 6. Pancreatin (Invitrogen, 25200-072) • 7. Microplate reader (BMG, PHERAsta) • 8. Cell counter (Countstar, Shanghai, IC1000)
LoVo cells were cultured in an F-12K culture medium containing 10% of FBS, and passaged twice or thrice a week in a passage ratio of 1:3 or 1:5. During passage, cells were digested by pancreatin, transferred to a centrifuge tube, and centrifuged for 3 min at 1200 rpm. The supernatant was discarded, and fresh culture medium was added to resuspend the cells. To a 96-well cell culture plate, 90 μL of the cell suspension was added at a density of 3.88×10^4 cells/mL. To peripheral wells of the 96-well plate, only 100 μL of complete medium was added. […]
The test samples were each diluted to 2 mM in DMSO and serially 3-fold diluted to the 10th concentration. […] The chemiluminescence signals were read by a PHERAstar system, and the data were processed by GraphPad software.

[2] = Pharmacokinetic study in rats after intragastric administration; format: in vivo; conditions: both sexes, rat, plasma, po, SD rats, 2 mg/kg
Description: The drug concentrations in the plasma of the test animals (rats) at different time points after intragastric administration of the compound of Example 1 were determined by an LC/MS/MS method. The pharmacokinetic behavior in rats of the compound disclosed herein was studied and its pharmacokinetic profile was evaluated.
12 healthy adult SD rats (half male and half female; purchased from Vital River) were evenly divided into 3 groups of 4.
A certain amount of the compound was added to a mixed solvent containing 5% of DMSO, 5% of Tween 80 and 90% of normal saline to obtain a colorless and clear solution.
SD rats were intragastrically administered with the compound after fasting overnight, at a dose of 2 mg/kg and a volume of 10.0 mL/kg.
Rats were intragastrically administered with the compound of Examples 1. 0.2 mL of blood was collected from the orbit pre-dose and at 0.25, 0.5, 1.0, 2.0, 4.0, 6.0, 8.0, 11.0 and 24.0 h post-dose. The blood samples were transferred to EDTA-K2kk anticoagulation tubes, centrifuged at 4° C. and 11000 rpm for 5 min to separate out plasma. The plasma samples were stored at −20° C. The rats were fed 2 h after administration.
The plasma concentration of the compound in rats after intragastric administration was determined: 25 μL of rat plasma at each time point post-dose was mixed with 50 μL of internal standard and 175 μL of acetonitrile; the mixture was vortexed for 5 min and centrifuged for 10 min at 4000 rpm. 1 μL of supernatant was taken for LC/MS/MS analysis.

ATR enzyme = ATR enzyme (Homo sapiens (Human), UniProt Q13535); experiment: Inhibitory effect on ATR enzyme (HTRF, phospho-p53); format: biochemical
From the text: The following method was used to determine the inhibitory effect of the compounds disclosed herein on ATR enzyme. The experimental method was briefly described as follows:
• 1. ATR enzyme (Eurofins Pharma Discovery Services, 14-953-M) • 2. GST-tag P53 protein (Eurofins Pharma Discovery Services, 14-952-M) • 3. 384-well plate (Thermo Scientific, 267462) • 4. U-shaped bottom 96-well plate (Corning, 3795) • 5. MAb Anti-phospho p53-Eu cryptate (Cisbio, 61P08KAE) • 6. MAb Anti GST-d2 (Cisbio, 61GSTDLF) • 7. ATP solution (Promega, V916B) • 8. EDTA (Thermo Scientific, AM9260G) • 9. HEPES (Gibco, 15630-080) • 10. Microplate reader (BMG, PHERAsta)
1 nM ATR enzyme, 50 nM P53 protein, 7.435 μM ATP and small molecule compounds of different concentrations (serially 3-fold diluted from 1 μM to the 11th concentration) were mixed and incubated at room temperature for 2 h. A terminating buffer (12.5 mM HEPES, 250 mM EDTA) was added. The mixture was well mixed before 0.42 ng/well of mAb anti-phospho p53-Eu cryptate and 25 ng/well of mAb anti GST-d2 were added. The mixture was incubated overnight at room temperature, and the fluorescence signals at 620 nm and 665 nm were detected using a PHERAstar system. Data were processed using GraphPad software.

[3] = Initial, printed in the 25° C./60% RH row
[4] = long-term/accelerated stability test, overall

ATR enzyme, sequence (Q13535 whole entry): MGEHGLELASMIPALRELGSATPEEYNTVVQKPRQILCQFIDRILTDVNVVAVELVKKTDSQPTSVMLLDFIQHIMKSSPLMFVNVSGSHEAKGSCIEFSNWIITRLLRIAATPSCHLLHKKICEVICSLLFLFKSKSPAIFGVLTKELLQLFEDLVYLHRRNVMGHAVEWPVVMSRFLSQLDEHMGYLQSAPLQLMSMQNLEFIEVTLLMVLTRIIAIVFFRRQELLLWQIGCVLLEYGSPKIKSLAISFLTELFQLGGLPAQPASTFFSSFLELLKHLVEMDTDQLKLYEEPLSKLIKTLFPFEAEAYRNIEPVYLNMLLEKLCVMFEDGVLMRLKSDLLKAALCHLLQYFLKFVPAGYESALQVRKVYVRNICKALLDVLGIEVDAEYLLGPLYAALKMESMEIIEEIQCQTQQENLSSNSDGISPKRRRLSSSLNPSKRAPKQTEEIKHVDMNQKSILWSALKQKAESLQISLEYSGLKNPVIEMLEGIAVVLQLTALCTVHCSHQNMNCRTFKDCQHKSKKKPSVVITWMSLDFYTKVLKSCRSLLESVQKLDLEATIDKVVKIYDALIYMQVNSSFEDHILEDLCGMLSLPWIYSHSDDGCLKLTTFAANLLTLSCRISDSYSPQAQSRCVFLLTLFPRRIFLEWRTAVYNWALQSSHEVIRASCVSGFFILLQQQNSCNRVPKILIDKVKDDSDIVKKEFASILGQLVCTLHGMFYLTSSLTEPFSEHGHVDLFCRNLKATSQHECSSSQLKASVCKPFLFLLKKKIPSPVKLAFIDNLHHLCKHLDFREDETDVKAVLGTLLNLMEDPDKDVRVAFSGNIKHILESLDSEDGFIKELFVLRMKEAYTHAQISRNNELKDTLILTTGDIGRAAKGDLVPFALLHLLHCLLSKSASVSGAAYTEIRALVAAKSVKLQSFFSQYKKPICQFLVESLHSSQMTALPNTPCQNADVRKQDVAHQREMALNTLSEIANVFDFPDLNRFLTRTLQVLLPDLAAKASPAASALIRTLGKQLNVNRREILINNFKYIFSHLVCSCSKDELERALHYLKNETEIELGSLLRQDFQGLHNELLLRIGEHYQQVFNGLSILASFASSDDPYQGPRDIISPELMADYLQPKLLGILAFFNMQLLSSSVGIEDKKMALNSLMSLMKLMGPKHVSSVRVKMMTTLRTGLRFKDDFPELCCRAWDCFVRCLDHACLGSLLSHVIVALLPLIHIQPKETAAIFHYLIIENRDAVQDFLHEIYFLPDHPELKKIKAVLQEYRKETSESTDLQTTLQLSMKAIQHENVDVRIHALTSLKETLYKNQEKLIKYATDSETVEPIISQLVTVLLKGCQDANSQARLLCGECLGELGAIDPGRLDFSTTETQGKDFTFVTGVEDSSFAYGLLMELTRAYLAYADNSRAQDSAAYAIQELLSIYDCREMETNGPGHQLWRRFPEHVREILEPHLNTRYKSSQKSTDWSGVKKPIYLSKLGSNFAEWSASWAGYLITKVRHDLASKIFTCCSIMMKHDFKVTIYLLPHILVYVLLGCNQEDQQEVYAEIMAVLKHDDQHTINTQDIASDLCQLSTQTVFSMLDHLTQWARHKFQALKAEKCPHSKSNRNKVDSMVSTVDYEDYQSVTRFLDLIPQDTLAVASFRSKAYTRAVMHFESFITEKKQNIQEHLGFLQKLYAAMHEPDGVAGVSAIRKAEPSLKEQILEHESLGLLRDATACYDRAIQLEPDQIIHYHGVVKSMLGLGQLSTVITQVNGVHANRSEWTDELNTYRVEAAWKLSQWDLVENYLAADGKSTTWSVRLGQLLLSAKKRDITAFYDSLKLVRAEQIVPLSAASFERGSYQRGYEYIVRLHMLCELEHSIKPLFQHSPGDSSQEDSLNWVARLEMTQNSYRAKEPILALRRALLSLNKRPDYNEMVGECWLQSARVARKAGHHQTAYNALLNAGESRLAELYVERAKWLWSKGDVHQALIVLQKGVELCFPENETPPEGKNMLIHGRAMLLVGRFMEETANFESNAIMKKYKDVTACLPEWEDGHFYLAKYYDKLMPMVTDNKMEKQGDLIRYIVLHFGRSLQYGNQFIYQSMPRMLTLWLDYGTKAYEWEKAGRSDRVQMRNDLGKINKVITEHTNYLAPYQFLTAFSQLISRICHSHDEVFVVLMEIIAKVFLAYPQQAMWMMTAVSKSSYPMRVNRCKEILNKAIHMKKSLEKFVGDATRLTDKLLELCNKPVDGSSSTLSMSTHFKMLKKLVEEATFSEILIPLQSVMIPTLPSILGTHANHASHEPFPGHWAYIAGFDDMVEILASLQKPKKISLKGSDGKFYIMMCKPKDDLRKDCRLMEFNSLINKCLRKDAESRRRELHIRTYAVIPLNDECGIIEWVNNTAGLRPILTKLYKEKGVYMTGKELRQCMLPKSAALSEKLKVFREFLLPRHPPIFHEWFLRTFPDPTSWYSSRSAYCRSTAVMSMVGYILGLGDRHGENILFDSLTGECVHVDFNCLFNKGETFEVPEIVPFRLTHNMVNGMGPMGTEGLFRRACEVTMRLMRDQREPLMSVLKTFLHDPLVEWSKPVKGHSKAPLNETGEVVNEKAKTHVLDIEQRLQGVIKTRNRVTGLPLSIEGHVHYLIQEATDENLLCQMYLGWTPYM
ATR enzyme, sequence (Q8WXE1 whole entry partner): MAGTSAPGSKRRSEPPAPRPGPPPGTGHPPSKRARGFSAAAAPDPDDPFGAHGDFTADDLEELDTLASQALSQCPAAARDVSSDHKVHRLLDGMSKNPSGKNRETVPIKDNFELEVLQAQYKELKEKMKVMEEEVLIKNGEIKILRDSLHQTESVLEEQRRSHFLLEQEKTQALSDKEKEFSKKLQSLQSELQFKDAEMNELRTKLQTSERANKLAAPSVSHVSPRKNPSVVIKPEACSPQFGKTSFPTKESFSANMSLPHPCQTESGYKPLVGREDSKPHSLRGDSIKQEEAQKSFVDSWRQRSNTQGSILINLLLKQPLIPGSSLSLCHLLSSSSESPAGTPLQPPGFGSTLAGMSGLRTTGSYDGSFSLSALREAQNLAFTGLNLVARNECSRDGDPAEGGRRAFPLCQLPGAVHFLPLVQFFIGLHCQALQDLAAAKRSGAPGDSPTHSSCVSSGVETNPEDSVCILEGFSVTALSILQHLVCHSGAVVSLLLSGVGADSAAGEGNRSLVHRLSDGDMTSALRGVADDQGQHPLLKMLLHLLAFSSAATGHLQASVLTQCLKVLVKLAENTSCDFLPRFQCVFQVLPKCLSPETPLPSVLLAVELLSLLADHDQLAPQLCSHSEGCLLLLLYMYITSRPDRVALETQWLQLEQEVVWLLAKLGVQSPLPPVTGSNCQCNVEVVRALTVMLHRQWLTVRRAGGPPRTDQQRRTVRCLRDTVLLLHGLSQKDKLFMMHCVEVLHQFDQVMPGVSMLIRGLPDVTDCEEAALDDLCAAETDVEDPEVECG

Structure (SMILES)	Purity (%) ([1]; 4° C., 1 month)	Purity (%) ([1]; 4° C., 2 months)	Crystalline form ([1]; 4° C.)	Purity (%) ([1]; 25° C./60% RH, 1 month)	Purity (%) ([1]; 25° C./60% RH, 2 months)	Crystalline form ([1]; 25° C./60% RH)	Purity (%) ([1]; 40° C./75% RH, 1 month)	Purity (%) ([1]; 40° C./75% RH, 2 months)	Crystalline form ([1]; 40° C./75% RH)	Purity (%) ([1]; Initial)	Purity (%) [1, 3] [%]	Chemical stability (in words) [1, 4]	Purity (%) ([1]; −20° C., 1 month)	Purity (%) ([1]; −20° C., 2 months)	Crystalline form ([1]; −20° C.)	Purity (%) ([1]; 4° C., 3 months)	Purity (%) ([1]; 25° C./60% RH, 3 months)	Chemical stability (in words) ([1]; 40° C. and 75% RH)	Purity (%) ([1]; 40° C./75% RH, 3 months)	Purity (%) ([1]; −20° C., 3 months)	other results
CC1COCCN1c1cc(C(C)(C)C#N)c2c(n1)c(-c1cc[nH]n1)nn2C.O=S(=O)(O)O (stereo not drawn) [Crystalline form α of sulfate]	97.07	97.29	Unchanged	93.00	92.90	Unchanged	89.37	83.97	Unchanged	97.55	97.70	slightly poor stability	97.62	97.56	Unchanged	–	–	–	–	–	–
CC1COCCN1c1cc(C(C)(C)C#N)c2c(n1)c(-c1cc[nH]n1)nn2C.CS(=O)(=O)O (stereo not drawn) [Crystalline form α of mesylate]	98.66	98.65	Unchanged	98.53	98.54	Unchanged	97.00	97.56	Unchanged	98.72	98.49	–	98.73	98.69	Unchanged	98.64	98.62	slightly degraded	95.66	98.61	–
CC1COCCN1c1cc(C(C)(C)C#N)c2c(n1)c(-c1cc[nH]n1)nn2C.O=C(O)C=CC(=O)O (stereo not shown) [Crystalline form I of maleate]	98.99	98.99	Unchanged	98.84	98.82	Unchanged	98.59	98.26	Unchanged	98.97	–	–	99.04	99.00	Unchanged	99.00	98.77	slightly degraded	98.30	99.00	–
C[C@@H]1COCCN1c1cc(C(C)(C)C#N)c2c(n1)c(-c1cc[nH]n1)nn2C [Example 1, (R)-2-methyl-2-(1-methyl-5-(3-methylmorpholino)-3-(1H-pyrazol-3-yl)-1H-pyrazolo[4,3-b]pyridin-7-yl)propanenitrile]	–	–	–	–	–	–	–	–	–	–	–	–	–	–	–	–	–	–	–	–	Max Inhibition (%) (LoVo cells): 93%; Vd/F ([2]; read-out: Apparent volume of distribution Vz/F): 2.06 ± 1.22 L/kg; AUC ([2]; read-out: Area under curve AUC): 3200 ± 2750 ng·h/mL; CL/F ([2]; read-out: Clearance CL/F): 17.7 ± 12.4 mL/min/kg; half-life ([2]; read-out: Half-life T1/2 (converted)): 157 ± 149 min; Cmax ([2]; read-out: Plasma concentration Cmax): 1110 ± 394 ng/mL; MRT ([2]; read-out: Residence time MRT): 3.08 ± 2.31 h; IC50 (ATR enzyme; 1 nM ATR enzyme, 50 nM P53 protein, 7.435 μM ATP, 2 h, read-out: IC50 for ATR enzyme inhibition): 3 nM; Max Inhibition (%) (ATR enzyme; ATR enzyme): 100%
CC1COCCN1c1cc(C(C)(C)C#N)c2c(n1)c(-c1cc[nH]n1)nn2C.CC1COCCN1c1cc(C(C)(C)C#N)c2c(n1)c(-c1cc[nH]n1)nn2C.O=C(O)C(=O)O (stereo not shown) [Crystalline form a of oxalate]	99.54	99.60	Unchanged	99.53	99.58	Unchanged	99.40	99.39	Unchanged	99.57	–	relatively stable	99.57	99.51	Unchanged	99.55	99.52	–	99.40	99.46	–
CC1COCCN1c1cc(C(C)(C)C#N)c2c(n1)c(-c1cc[nH]n1)nn2C.Cc1ccc(S(=O)(=O)O)cc1 (stereo not shown) [Crystalline form a of p-toluenesulfonate]	98.13	98.19	Unchanged	98.41	98.07	Unchanged	97.31	96.90	Unchanged	98.69	–	slightly poor stability	98.46	98.46	Unchanged	98.17	98.18	–	95.57	98.66	–
